*1 amine or outer side, *2 acyl side, *3 side chain or, on linkers, in order; H or OH if unused. Where a SMILES comes first, the peptide text is derived from it. Bridges are numbered along the chain shown (N, C = ends). Roman numbers before positions name the chains, in order. [ ]: non-standard residue; d: D form. The star is where a group is joined. Hexanoyl(6-succinimido-3yl) = O=C1CC([*:1])C(=O)N1CCCCCC(=O)[*:2]; Dolaproine = CO[C@@H]([C@@H]1CCCN1)[C@@H](C)C(=O)O; Dil = CC[C@H](C)[C@H](NC)[C@@H](CC(=O)O)OC; γGlu = O=C(O)[C@H](CCC(=O)[*:2])N[*:1]; PABC = O=C(OCc1ccc(N[*:1])cc1)[*:2]; X2 = C[C@@H](N*)[C@@H](O)c1ccccc1; X1 = O=C(C1CCC(CN[*:1])CC1)[*:2]; Cit = NC(=O)NCCC[C@H](N)C(=O)O; NMeV = CN[C@H](C(=O)O)C(C)C; CO = O=C([*:1])[*:2]; Ahx = NCCCCCC(=O)O
Tests used:
PSMA = biological target: T1, PSMA (Homo sapiens, UniProt Q04609); assay: Competitive binding assay against 3H-ZJ24 on PC3pip cells
T1 construct: expressed in transfected cells; host or cells: PC3pip cells (PC3 retrovirally transfected with PSMA), from Dr. Michel Sadelain, MSKCC
T1 sequence (Q04609 whole entry): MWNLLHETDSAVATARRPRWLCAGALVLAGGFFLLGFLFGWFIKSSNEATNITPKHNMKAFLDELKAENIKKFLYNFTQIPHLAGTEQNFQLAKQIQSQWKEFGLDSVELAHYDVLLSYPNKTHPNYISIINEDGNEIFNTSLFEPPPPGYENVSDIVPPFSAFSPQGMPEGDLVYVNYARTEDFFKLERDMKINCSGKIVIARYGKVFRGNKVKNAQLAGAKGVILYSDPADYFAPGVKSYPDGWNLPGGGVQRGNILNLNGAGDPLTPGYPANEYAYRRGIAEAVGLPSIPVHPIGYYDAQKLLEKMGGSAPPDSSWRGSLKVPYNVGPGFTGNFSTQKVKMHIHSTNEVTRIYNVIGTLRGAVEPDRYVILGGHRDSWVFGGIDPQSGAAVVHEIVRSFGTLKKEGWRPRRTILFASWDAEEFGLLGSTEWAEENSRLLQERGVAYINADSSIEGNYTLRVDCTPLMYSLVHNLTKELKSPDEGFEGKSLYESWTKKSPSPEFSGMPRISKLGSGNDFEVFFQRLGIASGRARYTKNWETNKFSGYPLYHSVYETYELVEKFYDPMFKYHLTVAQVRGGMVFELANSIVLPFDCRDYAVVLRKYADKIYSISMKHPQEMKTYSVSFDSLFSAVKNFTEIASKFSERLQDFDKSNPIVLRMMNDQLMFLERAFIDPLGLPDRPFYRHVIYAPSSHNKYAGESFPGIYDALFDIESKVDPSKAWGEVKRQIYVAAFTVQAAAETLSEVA
Experimental: The assay was carried as previously reported by incubation PC3pip cells with different concentrations of drug conjugates in the presence of 10 nM N-[N-[(S)-1,3-dicarboxypropyl]carbamoyl]-S-[^3H]-methyl-L-cysteine (^3H-ZJ24) (GE Healthcare Life Sciences, Chicago, IL, USA). Radioactivity of cell pellet was counted by scintillation counter. The concentration required to inhibit 50% of binding was determined (IC50) by GraphPad Prism 3.0.

[1] = test system: heterotopic PC3flu tumors; assay: Heterotopic PC3flu versus PC3pip tumor study; type: in vivo, mouse; conditions: 955 nmol/kg every 4 days, five doses, n = 5, p = 0.0493
Experimental: Male athymic nude mice were implanted subcutaneously with 1 × 10^6 of PC3pip cells 100 μL of matrigel. When tumor size reached approximately 100 mm^3 (tumor volume = Length × width^2/2), mice received drugs through tail vein injection every 4 days with a total of five doses. Mice were treated every 4 days with a total of five doses. Animals were weighed and tumor size measured every other day for 90 days. Cures were defined as no tumor present at end of the 90-day study. When tumors became too large or animals were moribund they were euthanized. Five mice were used in each group. […]
drugs through tail vein inject every 4 days with total of 5 injections as indicated by the red arrows.
Each group had 5 mice. Values are mean ± SD of 5 animals. The plots stopped when animals died during the experiments since values are represent as mean ± SD of 5 animals.
(nmol/kg) Tumor Growth (nmol/kg) Therapeutic Index *
*: Therapeutic index is defined by MTD/effective dose.
PC3flu tumors. Treatment were scheduled every 4 days with a total of five doses as indicated by the red arrow. Each group had 5 mice. For tumor growth curves and body weight curves, values are mean ± SD of 5 animals. The plots stopped when animals died during the experiments since values are represent as mean ± SD of 5 animals. (A) Tumor growth curves of mice treated with 955 nmol/kg of PSMA-1-VcMMAE. […]

CC[C@H](C)[C@@H]([C@@H](CC(=O)N1CCC[C@H]1[C@H](OC)[C@@H](C)C(=O)N[C@H](C)[C@@H](O)c1ccccc1)OC)N(C)C(=O)[C@@H](NC(=O)[C@H](C(C)C)N(C)C(=O)OCc1ccc(NC(=O)[C@H](CCCNC(N)=O)NC(=O)[C@@H](NC(=O)CCCCCN2C(=O)CC(SC[C@H](NC(=O)[C@@H](CCC(=O)O)NC(=O)[C@@H](CCC(=O)O)NC(=O)[C@@H](CCC(=O)O)NC(=O)CCCCCNC(=O)C3CCC(CNC(=O)CC[C@H](NC(=O)N[C@@H](CCC(=O)O)C(=O)O)C(=O)O)CC3)C(=O)NCCCCCC(=O)N[C@@H](CCCCN)C(N)=O)C2=O)C(C)C)cc1)C(C)C (some centres unmarked) [PSMA-1-VcMMAE] (I: {Glu-CO-γGlu}-[X1][Ahx][dE][dE][dE]C[Ahx]K-NH2 / II: V[Cit][PABC][NMeV]V[Dil][Dolaproine]-X2; linker I:6-II:N via Hexanoyl(6-succinimido-3yl))
IC50 (PSMA): 4.34 nM
inhibition of PC3pip versus PC3flu tumor growth (in words) [1]: significantly more effective at inhibiting PSMA-positive PC3pip tumor growth than PSMA-negative PC3flu tumor growth
